Target: T1, sPHEX (Homo sapiens, UniProt P78562)
T1 construct: The soluble form of the metallopeptidase PHEX (sPHEX) was purified to homogeneity; made in house
T1 sequence (P78562 53-749 limits assumed): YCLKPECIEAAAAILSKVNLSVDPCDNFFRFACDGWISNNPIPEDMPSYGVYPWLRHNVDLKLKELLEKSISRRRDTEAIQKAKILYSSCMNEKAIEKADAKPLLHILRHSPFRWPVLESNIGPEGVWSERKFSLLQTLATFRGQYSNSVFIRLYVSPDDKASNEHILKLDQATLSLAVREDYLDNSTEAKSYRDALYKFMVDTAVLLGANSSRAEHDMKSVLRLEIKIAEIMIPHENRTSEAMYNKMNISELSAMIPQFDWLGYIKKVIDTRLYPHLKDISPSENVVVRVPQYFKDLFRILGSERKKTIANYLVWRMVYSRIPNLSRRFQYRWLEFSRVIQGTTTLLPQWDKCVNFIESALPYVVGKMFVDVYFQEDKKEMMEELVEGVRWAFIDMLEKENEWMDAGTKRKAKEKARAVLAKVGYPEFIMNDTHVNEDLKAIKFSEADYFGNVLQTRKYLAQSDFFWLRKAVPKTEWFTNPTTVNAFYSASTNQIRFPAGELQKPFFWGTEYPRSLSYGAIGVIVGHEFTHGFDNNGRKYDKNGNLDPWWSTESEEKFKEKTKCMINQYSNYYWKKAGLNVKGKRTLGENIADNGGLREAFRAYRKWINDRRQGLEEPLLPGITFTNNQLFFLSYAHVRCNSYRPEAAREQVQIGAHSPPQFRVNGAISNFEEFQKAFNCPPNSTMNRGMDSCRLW
Assay: sPHEX inhibitor IC50 determination using a fluorogenic substrate (Abz-GFSDYK-Dnp, S3)
Type: biochemical
Details: fluorogenic substrate 20 μM, 100 ng sPHEX, pH 6.5
Method: The soluble form of the metallopeptidase PHEX (sPHEX) was purified to homogeneity according to the methods of Boileau and Crine (WO 00/50580). sPHEX quantity was measured with the Bradford assay (BioRad) using BSA as a standard.
sPHEX activity was determined using a fluorogenic substrate in which an increase of fluorescence was proportional to substrate conversion to products.
S3 was synthesized at Dr. Gilles Lajoie's laboratories (University of Western Ontario, Canada) by standard solid phase peptide synthesis. The fluorescent reaction product was excited at 320 nm to fluoresce at 420 nm. Fluorescence was recorded at 420 nm every five minutes over a one-hour period on a fluorescence plate reader (Perkin-Elmer, HTS-7000) to calculate the initial rate of the reaction. Typically, the reaction was carried out in 200 μl of buffer M (50 mM Mes(NaOH) pH 6.5, 150 mM NaCl) containing 100 ng of purified sPHEX and 20 μM of fluorigenic substrate to initiate the reaction. Enzymatic activity was determined by subtracting either the initial rate of substrate in buffer (solvolysis), or the typical reaction rate in which 5 mM EDTA was added prior to initiating the reaction.
sPHEX inhibitor IC50 determinations were done using the tested inhibitor at various concentrations coming from a serial dilution (usually ranging from 10^−3 M to 10^−12 M) in the reaction described above. IC50 values were calculated using the iterative four parameters non-linear regression formula from the GraphPad™ software (Prism).

Row | SMILES | IC50
1 | O=C(O)C[C@H](NC(=O)CS)C(=O)N[C@@H](Cc1c[nH]c2ccccc12)C(=O)O [Example 87, N-[1-Carboxy-2-(1H-indol-3-yl)-ethyl]-3-(2-mercapto-acetylamino)-succinamic acid] | 600 nM
2 | C[C@H](S)C(=O)N[C@@H](CC(=O)O)C(=O)N[C@@H](Cc1c[nH]c2ccccc12)C(=O)O [Example 90, N-[1-Carboxy-2-(1H-indol-3-yl)-ethyl]-3-(2-mercapto-propionylamino)-succinamic acid] | 68 nM
3 | CC(C)C[C@H](S)C(=O)N[C@@H](CC(=O)O)C(=O)N[C@@H](Cc1c[nH]c2ccccc12)C(=O)O [Example 91, N-[1-Carboxy-2-(1H-indol-3-yl)-ethyl]-3-(2-mercapto-4-methyl-pentanoylamino)-succinamic acid] | 94 nM
4 | CC(C)[C@H](S)C(=O)N[C@@H](CC(=O)O)C(=O)N[C@@H](Cc1c[nH]c2ccccc12)C(=O)O [Example 92, N-[1-Carboxy-2-(1H-indol-3-yl)-ethyl]-3-(2-mercapto-3-methyl-butyrylamino)-succinamic acid] | 5 nM
5 | O=C(O)C[C@H](NC(=O)[C@@H](S)CO)C(=O)N[C@@H](Cc1c[nH]c2ccccc12)C(=O)O [Example 93, N-[1-Carboxy-2-(1H-indol-3-yl)-ethyl]-3-(3-hydroxy-2-mercapto-propionylamino)-succinamic acid] | 48 nM
6 | C[C@H](O)[C@H](S)C(=O)N[C@@H](CC(=O)O)C(=O)N[C@@H](Cc1c[nH]c2ccccc12)C(=O)O [Example 94, N-[1-Carboxy-2-(1H-indol-3-yl)-ethyl]-3-(3-hydroxy-2-mercapto-butyrylamino)-succinamic acid] | 4 nM
7 | CCCC[C@H](S)C(=O)N[C@@H](CC(=O)O)C(=O)N[C@@H](Cc1c[nH]c2ccccc12)C(=O)O [Example 95, N-[1-Carboxy-2-(1H-indol-3-yl)-ethyl]-3-(2-mercapto-hexanoylamino)-succinamic acid] | 7 nM
8 | O=C(O)C[C@H](NC(=O)[C@@H](S)c1ccccc1)C(=O)N[C@@H](Cc1c[nH]c2ccccc12)C(=O)O [Example 97, N-[1-Carboxy-2-(1H-indol-3-yl)-ethyl]-3-(2-mercapto-2-phenyl-acetylamino)-succinamic acid] | 3 nM
9 | O=C(O)C[C@H](NC(=O)[C@@H](S)Cc1ccc(-c2ccccc2)cc1)C(=O)N[C@@H](Cc1c[nH]c2ccccc12)C(=O)O [Example 98, 3-(3-Biphenyl-4-yl-2-mercapto-propionylamino)-N-[1-Carboxy-2-(1H-indol-3-yl)-ethyl]-succinamic acid] | 8 nM
10 | O=C(O)C[C@H](NC(=O)[C@@H](S)Cc1ccc(OCc2ccccc2)cc1)C(=O)N[C@@H](Cc1c[nH]c2ccccc12)C(=O)O [Example 99, 3-(3-(4-Benzyloxy-phenyl)-2-mercapto-propionylamino)-N-[1-Carboxy-2-(1H-indol-3-yl)-ethyl]-succinamic acid] | 8 nM
11 | O=C(O)C[C@H](NC(=O)[C@@H](S)Cc1ccc(F)cc1)C(=O)N[C@@H](Cc1c[nH]c2ccccc12)C(=O)O [Example 100, N-[1-Carboxy-2-(1H-indol-3-yl)-ethyl]-3-[3-(4-fluoro-phenyl)-2-mercapto-propionylamino]-succinamic acid] | 6 nM
12 | COc1ccc(C[C@H](S)C(=O)N[C@@H](CC(=O)O)C(=O)N[C@@H](Cc2c[nH]c3ccccc23)C(=O)O)cc1 [Example 101, N-[1-Carboxy-2-(1H-indol-3-yl)ethyl]-3-[2-mercapto-3-(methoxy-phenyl)-propionylamino]-succinamic acid] | 18 nM
13 | O=C(O)C[C@H](NC(=O)[C@@H](S)CC1CCCCC1)C(=O)N[C@@H](Cc1c[nH]c2ccccc12)C(=O)O [Example 102, N-[1-Carboxy-2-(1H-indol-3-yl)-ethyl]-3-(3-cyclohexyl-2-mercapto-propionylamino)-succinamic acid] | 20 nM
14 | O=C(O)C[C@H](NC(=O)[C@@H](S)Cc1c[nH]c2ccccc12)C(=O)N[C@@H](Cc1c[nH]c2ccccc12)C(=O)O [Example 103, N-[1-Carboxy-2-(1H-indol-3-yl)-ethyl]-3-[3-(1H-indol-3-yl)-2-mercapto-propionylamino]-succinamic acid] | 22 nM
15 | O=C(O)C[C@H](NC(=O)[C@@H](S)Cc1ccc2ccccc2c1)C(=O)N[C@@H](Cc1c[nH]c2ccccc12)C(=O)O [Example 104, N-[1-Carboxy-2-(1H-indol-3-yl)-ethyl]-3-(2-mercapto-3-naphthalen-2-yl-propionylamino]-succinamic acid] | 15 nM

The remaining lines, values ahead:

Row | IC50 | SMILES
16 | 11 nM | O=C(O)C[C@H](NC(=O)[C@@H](S)Cc1ccccc1)C(=O)N[C@@H](Cc1c[nH]c2ccccc12)C(=O)O [Example 89, N-[1-Carboxy-2-(1H-indol-3-yl)-ethyl]-3-(2-mercapto-3-phenyl-propionylamino)-succinamic acid]
17 | 4 nM | O=C(O)C[C@H](NC(=O)[C@@H](S)CCc1ccccc1)C(=O)N[C@@H](Cc1c[nH]c2ccccc12)C(=O)O [Example 96, N-[1-Carboxy-2-(1H-indol-3-yl)-ethyl]-3-(2-mercapto-4-phenyl-butyrylamino)-succinamic acid]
18 | 6 nM | O=C(O)C[C@H](NC(=O)[C@@H](S)Cc1ccccc1)C(=O)N[C@@H](Cc1ccc2ccccc2c1)C(=O)O [Example 106, N-(1-Carboxy-2-naphthalen-2-yl-ethyl)-3-(2-mercapto-3-phenylpropionylamino)-succinamic acid]
19 | 170 nM | O=C(O)C[C@H](NC(=O)[C@@H](S)Cc1ccccc1)C(=O)N[C@@H](CO)C(=O)O [Example 107, N-(1-Carboxy-2-hydroxy-ethyl)-3-(2-mercapto-3-phenyl-propionylamino)-succinamic acid]
20 | 7 nM | O=C(O)C[C@H](NC(=O)[C@@H](S)Cc1ccccc1)C(=O)N[C@@H](Cc1ccc(O)cc1)C(=O)O [Example 108, N-[1-Carboxy-2-(4-hydroxy-phenyl)-ethyl]-3-(2-mercapto-3-phenyl-propionylamino)-succinamic acid]
21 | 7 nM | O=C(O)C[C@H](NC(=O)[C@@H](S)Cc1ccccc1)C(=O)N[C@@H](Cc1ccccc1)C(=O)O [Example 109, N-[1-Carboxy-2-phenyl-ethyl)-3-(2-mercapto-3-phenyl-propionylamino)-succinamic acid]
22 | 38 nM | O=C(O)C[C@H](NC(=O)[C@@H](S)Cc1ccccc1)C(=O)N[C@@H](Cc1ccc(-c2ccccc2)cc1)C(=O)O [Example 110, N-(2-Biphenyl-4-yl-1-Carboxy-ethyl)-3-(2-mercapto-3-phenyl-propionylamino)-succinamic acid]
23 | 90 nM | O=C(O)C[C@H](NC(=O)[C@@H](S)Cc1ccccc1)C(=O)N[C@H](CO)Cc1ccccc1 [Example 111, N-(1-Benzyl-2-hydroxy-ethyl)-3-(2-mercapto-3-phenyl-propionylamino)-succinamic acid]
24 | 15 nM | O=C(O)C[C@@H](NC(=O)[C@@H](S)Cc1ccccc1)C(=O)N[C@@H](Cc1c[nH]c2ccccc12)C(=O)O [Example 112, N-[1-Carboxy-2-(1H-indol-3-yl)-ethyl]-3-(2-mercapto-3-phenyl-propionylamino)-succinamic acid]
25 | 320 nM | O=C(O)CC[C@H](NC(=O)[C@@H](S)Cc1ccccc1)C(=O)N[C@@H](Cc1c[nH]c2ccccc12)C(=O)O [Example 114]
